# Source: PubChem BioAssay (NCI)
#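 Grown in 96-well plates, cells were treated for 48 hours with each compound at five concentrations. Insufficient inhibition: endpoint recorded as highest concentration tested. GI50 = concentration required for 50% inhibition of growth. TGI is the concentration that stops growth completely.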
# Tests used:
# Test in all cases: NCI anticancer screen, dose series, 48 h
# 786-0 renal = tested on: 786-0 renal
# A498 renal = tested on: A498 renal
# A549 NSCLC = tested on: A549 NSCLC
# ACHN renal = tested on: ACHN renal
# BT-549 breast = tested on: BT-549 breast
# CAKI-1 renal = tested on: CAKI-1 renal
# CCRF-CEM leukemia = tested on: CCRF-CEM leukemia
# COLO 205 colon = tested on: COLO 205 colon
# DU-145 prostate = tested on: DU-145 prostate
# EKVX NSCLC = tested on: EKVX NSCLC
# HCC-2998 colon = tested on: HCC-2998 colon
# HCT-116 colon = tested on: HCT-116 colon
# HCT-15 colon = tested on: HCT-15 colon
# HL-60(TB) leukemia = tested on: HL-60(TB) leukemia
# HOP-62 NSCLC = tested on: HOP-62 NSCLC
# HOP-92 NSCLC = tested on: HOP-92 NSCLC
# HS 578T breast = tested on: HS 578T breast
# HT29 colon = tested on: HT29 colon
# IGROV1 ovarian = tested on: IGROV1 ovarian
# K-562 leukemia = tested on: K-562 leukemia
# KM12 colon = tested on: KM12 colon
# LOX IMVI melanoma = tested on: LOX IMVI melanoma
# M14 melanoma = tested on: M14 melanoma
# MALME-3M melanoma = tested on: MALME-3M melanoma
# MCF7 breast = tested on: MCF7 breast
# MDA-MB-435 = tested on: MDA-MB-435
# MOLT-4 leukemia = tested on: MOLT-4 leukemia
# NCI-H226 lung = tested on: NCI-H226 lung
# NCI-H23 lung = tested on: NCI-H23 lung
# NCI-H460 lung = tested on: NCI-H460 lung
# NCI-H522 lung = tested on: NCI-H522 lung
# OVCAR-3 ovarian = tested on: OVCAR-3 ovarian
# OVCAR-4 ovarian = tested on: OVCAR-4 ovarian
# OVCAR-5 ovarian = tested on: OVCAR-5 ovarian
# OVCAR-8 ovarian = tested on: OVCAR-8 ovarian
# PC-3 prostate = tested on: PC-3 prostate
# RXF 393 renal = tested on: RXF 393 renal
# SF-268 CNS = tested on: SF-268 CNS
# SF-295 CNS = tested on: SF-295 CNS
# SF-539 CNS = tested on: SF-539 CNS
# SK-MEL-2 melanoma = tested on: SK-MEL-2 melanoma
# SK-MEL-28 melanoma = tested on: SK-MEL-28 melanoma
# SK-OV-3 ovarian = tested on: SK-OV-3 ovarian
# SN12C renal = tested on: SN12C renal
# SNB-19 CNS = tested on: SNB-19 CNS
# SNB-75 CNS = tested on: SNB-75 CNS
# SR leukemia = tested on: SR leukemia
# SW-620 colon = tested on: SW-620 colon
# T-47D breast = tested on: T-47D breast
# TK-10 renal = tested on: TK-10 renal
# U251 CNS = tested on: U251 CNS
# UACC-257 melanoma = tested on: UACC-257 melanoma
# UACC-62 melanoma = tested on: UACC-62 melanoma
# UO-31 renal = tested on: UO-31 renal
compound,measurement,setting,value
COc1ccccc1N1CCN(C2=NN=C(c3cccc(Cl)c3)c3ccccc3C2)CC1,GI50,786-0 renal,542 nM
same,TGI,786-0 renal,13200 nM
same,GI50,A498 renal,350 nM
same,TGI,A498 renal,2780 nM
same,GI50,A549 NSCLC,425 nM
same,TGI,A549 NSCLC,> 100000 nM
same,GI50,ACHN renal,554 nM
same,TGI,ACHN renal,> 100000 nM
same,GI50,BT-549 breast,373 nM
same,TGI,BT-549 breast,> 30500 nM
same,GI50,CAKI-1 renal,410 nM
same,TGI,CAKI-1 renal,13500 nM
same,GI50,CCRF-CEM leukemia,333 nM
same,TGI,CCRF-CEM leukemia,> 100000 nM
same,GI50,COLO 205 colon,337 nM
same,TGI,COLO 205 colon,1650 nM
same,GI50,DU-145 prostate,367 nM
same,TGI,DU-145 prostate,2370 nM
same,GI50,EKVX NSCLC,556 nM
same,TGI,EKVX NSCLC,> 100000 nM
same,GI50,HCC-2998 colon,324 nM
same,TGI,HCC-2998 colon,2270 nM
same,GI50,HCT-116 colon,337 nM
same,TGI,HCT-116 colon,> 36600 nM
same,GI50,HCT-15 colon,343 nM
same,TGI,HCT-15 colon,> 34200 nM
same,GI50,HL-60(TB) leukemia,285 nM
same,TGI,HL-60(TB) leukemia,920 nM
same,GI50,HOP-62 NSCLC,508 nM
same,TGI,HOP-62 NSCLC,> 65800 nM
same,GI50,HOP-92 NSCLC,1000 nM
same,TGI,HOP-92 NSCLC,> 22200 nM
same,GI50,HS 578T breast,332 nM
same,GI50,HT29 colon,337 nM
same,GI50,IGROV1 ovarian,474 nM
same,TGI,IGROV1 ovarian,> 100000 nM
same,GI50,K-562 leukemia,336 nM
same,TGI,K-562 leukemia,> 100000 nM
same,GI50,KM12 colon,380 nM
same,TGI,KM12 colon,> 100000 nM
same,GI50,LOX IMVI melanoma,418 nM
same,TGI,LOX IMVI melanoma,> 100000 nM
same,GI50,M14 melanoma,316 nM
same,GI50,MALME-3M melanoma,630 nM
same,TGI,MALME-3M melanoma,> 100000 nM
same,GI50,MCF7 breast,351 nM
same,TGI,MCF7 breast,> 38000 nM
same,GI50,MDA-MB-435,206 nM
same,TGI,MDA-MB-435,497 nM
same,GI50,MOLT-4 leukemia,356 nM
same,TGI,MOLT-4 leukemia,> 100000 nM
same,GI50,NCI-H226 lung,1160 nM
same,TGI,NCI-H226 lung,> 36300 nM
same,GI50,NCI-H23 lung,571 nM
same,TGI,NCI-H23 lung,> 100000 nM
same,GI50,NCI-H460 lung,351 nM
same,TGI,NCI-H460 lung,1940 nM
same,GI50,NCI-H522 lung,270 nM
same,GI50,OVCAR-3 ovarian,282 nM
same,TGI,OVCAR-3 ovarian,793 nM
same,GI50,OVCAR-4 ovarian,1190 nM
same,TGI,OVCAR-4 ovarian,> 100000 nM
same,GI50,OVCAR-5 ovarian,498 nM
same,TGI,OVCAR-5 ovarian,> 37200 nM
same,GI50,OVCAR-8 ovarian,438 nM
same,TGI,OVCAR-8 ovarian,> 100000 nM
same,GI50,PC-3 prostate,443 nM
same,TGI,PC-3 prostate,> 33900 nM
same,GI50,RXF 393 renal,270 nM
same,TGI,RXF 393 renal,2760 nM
same,GI50,SF-268 CNS,566 nM
same,TGI,SF-268 CNS,> 100000 nM
same,GI50,SF-295 CNS,334 nM
same,TGI,SF-295 CNS,3440 nM
same,GI50,SF-539 CNS,277 nM
same,TGI,SF-539 CNS,847 nM
same,GI50,SK-MEL-2 melanoma,743 nM
same,TGI,SK-MEL-2 melanoma,> 45400 nM
same,GI50,SK-MEL-28 melanoma,2470 nM
same,TGI,SK-MEL-28 melanoma,> 100000 nM
same,GI50,SK-OV-3 ovarian,637 nM
same,TGI,SK-OV-3 ovarian,97400 nM
same,GI50,SN12C renal,474 nM
same,TGI,SN12C renal,> 100000 nM
same,GI50,SNB-19 CNS,420 nM
same,TGI,SNB-19 CNS,> 100000 nM
same,GI50,SNB-75 CNS,491 nM
same,TGI,SNB-75 CNS,20300 nM
same,GI50,SR leukemia,260 nM
same,TGI,SR leukemia,> 100000 nM
same,GI50,SW-620 colon,439 nM
same,TGI,SW-620 colon,> 100000 nM
same,GI50,T-47D breast,1130 nM
same,TGI,T-47D breast,> 100000 nM
same,GI50,TK-10 renal,2320 nM
same,TGI,TK-10 renal,> 43200 nM
same,GI50,U251 CNS,383 nM
same,TGI,U251 CNS,> 100000 nM
same,GI50,UACC-257 melanoma,2370 nM
same,TGI,UACC-257 melanoma,> 100000 nM
same,GI50,UACC-62 melanoma,509 nM
same,TGI,UACC-62 melanoma,> 100000 nM
same,GI50,UO-31 renal,708 nM
same,TGI,UO-31 renal,> 100000 nM
